Data reported in article PMC9508125, “The evolutionary advantage of an aromatic clamp in plant family 3 glycoside exo-hydrolases” (Nature Communications, 2022).
Substitutions are numbered along the chain they refer to.

Legend:
Experiment in all cases: Steady-state apparent kinetic constants with substrates
Format in all cases: biochemical
HvExoI W434A mutant = biological target: T1, HvExoI W434A mutant (Hordeum vulgare, UniProt Q9XEI3, W459A)
T1 sequence (Q9XEI3 26-630 W459A): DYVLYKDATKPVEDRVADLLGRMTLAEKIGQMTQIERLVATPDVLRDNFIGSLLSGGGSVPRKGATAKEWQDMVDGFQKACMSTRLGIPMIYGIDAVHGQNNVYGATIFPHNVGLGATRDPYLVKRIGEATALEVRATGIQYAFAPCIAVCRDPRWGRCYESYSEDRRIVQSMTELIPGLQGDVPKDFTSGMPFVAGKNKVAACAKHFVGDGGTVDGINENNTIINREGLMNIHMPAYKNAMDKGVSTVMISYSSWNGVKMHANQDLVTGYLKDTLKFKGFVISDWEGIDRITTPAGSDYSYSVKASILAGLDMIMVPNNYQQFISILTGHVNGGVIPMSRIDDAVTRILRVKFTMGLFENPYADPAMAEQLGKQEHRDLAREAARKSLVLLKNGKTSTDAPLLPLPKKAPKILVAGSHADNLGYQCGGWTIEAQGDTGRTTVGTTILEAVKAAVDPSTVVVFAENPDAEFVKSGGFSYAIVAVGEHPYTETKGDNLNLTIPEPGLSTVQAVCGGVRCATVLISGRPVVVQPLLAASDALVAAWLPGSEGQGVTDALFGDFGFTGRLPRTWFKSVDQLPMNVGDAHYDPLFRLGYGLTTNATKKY
Method: (§1) Dependency of activities of WT and mutant HvExoI on pH (McIlvaine buffers in the pH range of 3.5–8.5 at 30 °C) and temperature (100 mM sodium acetate buffer, pH 5.25, temperature range 0–80 °C, 15 min incubations) were determined using 0.2% (w/v) 4NP-Glc[21],[59]. Relative rates of hydrolysis of β-linked poly-, oligosaccharides, and aryl-glucosides were determined using near-homogenous HvExoI at 50 pmoles. […] Kinetic parameters were calculated from the analyses of Michaelis-Menten plots with Grafit 7.0.3[62] and processed by a proportional weighted fit, using nonlinear regression. The relative rates of hydrolysis, kinetic, and inhibition data were rounded to one or two decimal points (Supplementary Tables 2–4).

HvExoI W434Y mutant = biological target: T2, HvExoI W434Y mutant (Hordeum vulgare, UniProt Q9XEI3, W459Y); conditions: substance is the substrate
T2 sequence (Q9XEI3 26-630 W459Y): T1 sequence (Q9XEI3 26-630 W459A) with A434Y
Method: as §1

HvExoI W434H mutant = biological target: T3, HvExoI W434H mutant (Hordeum vulgare, UniProt Q9XEI3, W459H); conditions: substance is the substrate
T3 sequence (Q9XEI3 26-630 W459H): T1 sequence (Q9XEI3 26-630 W459A) with A434H
Method: as §1

HvExoI W286Y mutant = biological target: T4, HvExoI W286Y mutant (Hordeum vulgare, UniProt Q9XEI3, W311Y); conditions: substance is the substrate
T4 sequence (Q9XEI3 26-630 W311Y): T1 sequence (Q9XEI3 26-630 W459A) with W286Y, A434W
Method: as §1

Compound	fold decrease of kcat compared to WT (HvExoI W434A mutant)	Km (HvExoI W434Y mutant)	kcat (HvExoI W434Y mutant)	Km (HvExoI W434H mutant)	kcat (HvExoI W434H mutant)	Km (HvExoI W286Y mutant)	kcat (HvExoI W286Y mutant)
OC[C@H]1O[C@@H](O[C@H]2[C@H](O)[C@@H](CO)OC(O)[C@@H]2O)[C@H](O)[C@@H](O)[C@@H]1O (stereo partly shown) [Laminaribiose]	about 21 fold						
laminarin		100 ± 10 µM	0.8 ± 0.1 s⁻¹	300 ± 20 µM	8.5 ± 0.9 s⁻¹	100 ± 10 µM	30.3 ± 2.4 s⁻¹
